What was measured:
Test in all cases: relative viability (nuclei count vs DMSO), 5 days (fraction); higher = more cells survive
RU-SKI 43 + Palbociclib = compound: CC[C@@H](C)CNCC(=O)N1CCC2=C([C@@H]1COC3=CC=CC(=C3)C)C=CS2 [RU-SKI 43] + CC(=O)c1c(C)c2cnc(Nc3ccc(N4CCNCC4)cn3)nc2n(C2CCCC2)c1=O [Palbociclib] (partner 0.5 µM)
Summary of the method: (§1)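 After 5 days of treatment, lung cancer cells in 1536-well plates were fixed and stained in a single step (final 0.05% Triton X-100, 1% formaldehyde, 1 ug/ml Hoechst) and their nuclei counted on 4× images. Treatment had been applied by pin tool the day after seeding as one drug alone or as a fixed anchor-drug dose with five library-drug doses (not always all listed) in √10 steps. Relative viability is the nuclei count of treated wells divided by that of vehicle wells, and values are medians of duplicate plates.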

RU-SKI 43 + Pictilisib = compound: CC[C@@H](C)CNCC(=O)N1CCC2=C([C@@H]1COC3=CC=CC(=C3)C)C=CS2 [RU-SKI 43] + CS(=O)(=O)N1CCN(Cc2cc3nc(-c4cccc5[nH]ncc45)nc(N4CCOCC4)c3s2)CC1 [Pictilisib] (partner 1 µM)
Summary of the method: as §1

Irinotecan + Lapatinib = compound: CCc1c2c(nc3ccc(OC(=O)N4CCC(N5CCCCC5)CC4)cc13)-c1cc3c(c(=O)n1C2)COC(=O)[C@]3(O)CC [Irinotecan] + CS(=O)(=O)CCNCc1ccc(-c2ccc3ncnc(Nc4ccc(OCc5cccc(F)c5)c(Cl)c4)c3c2)o1 [Lapatinib] (partner 2 µM)
Summary of the method: as §1

Irinotecan + Olaparib = compound: CCc1c2c(nc3ccc(OC(=O)N4CCC(N5CCCCC5)CC4)cc13)-c1cc3c(c(=O)n1C2)COC(=O)[C@]3(O)CC [Irinotecan] + O=C(c1cc(Cc2n[nH]c(=O)c3ccccc23)ccc1F)N1CCN(C(=O)C2CC2)CC1 [Olaparib] (partner 8 µM)
Summary of the method: as §1

Row | Cell Line | relative viability (RU-SKI 43 + Palbociclib; first compound 0.1 µM) | relative viability (RU-SKI 43 + Palbociclib; first compound 0.3162 µM) | relative viability (RU-SKI 43 + Palbociclib; first compound 1 µM) | relative viability (RU-SKI 43 + Palbociclib; first compound 3.162 µM) | relative viability (RU-SKI 43 + Palbociclib; first compound 10 µM) | relative viability (RU-SKI 43 + Pictilisib; first compound 0.1 µM) | relative viability (RU-SKI 43 + Pictilisib; first compound 0.3162 µM) | relative viability (RU-SKI 43 + Pictilisib; first compound 1 µM) | relative viability (RU-SKI 43 + Pictilisib; first compound 3.162 µM) | relative viability (RU-SKI 43 + Pictilisib; first compound 10 µM) | relative viability (Irinotecan + Lapatinib; first compound 0.6325 µM) | relative viability (Irinotecan + Lapatinib; first compound 2 µM) | relative viability (Irinotecan + Lapatinib; first compound 6.325 µM) | relative viability (Irinotecan + Lapatinib; first compound 20 µM) | relative viability (Irinotecan + Olaparib; first compound 2 µM) | relative viability (Irinotecan + Olaparib; first compound 6.325 µM) | relative viability (Irinotecan + Olaparib; first compound 20 µM) | relative viability (Irinotecan + Olaparib; first compound 0.6325 µM)
1 | NCI-H1355 | 0.405 | 0.381 | 0.358 | 0.42 | 0.389 | 0.432 | 0.331 | 0.508 | 0.465 | 0.442 | 0.534 | 0.909 | 0.264 | 0.242 | 0.321 | 0.278 | 0.209 | 
2 | NCI-H1792 | 0.692 | 0.764 | 0.685 | 0.698 | 0.662 | 0.284 | 0.351 | 0.277 | 0.281 | 0.304 | 0.92 | 0.949 | 0.202 | 0.11 | 0.327 | 0.198 | 0.298 | 0.332
3 | NCI-H661 | 0.384 | 0.398 | 0.401 | 0.348 | 0.344 | 0.432 | 0.409 | 0.484 | 0.355 | 0.414 | 0.478 | 0.357 | 0.314 | 0.296 | 0.556 | 0.396 | 0.233 | 0.583

— the supplement of paper PMC10307832
